# Assay results as given in US20260014147A1, “STAT6 DEGRADERS” (Gilead Sciences, Inc., priority 2024, published 2026).
# Key:
# [1] = molecular target: T1, STAT6 (endogenous, HiBiT-tagged) in HeLa LgBiT clone 4.14 cells (Homo sapiens, UniProt P42226); assay: STAT6 Degrader Assay (HiBiT based, HeLa LgBiT clone 4.14 cells, luminescence, DC50); type: cell-based; settings: DC50 provided for test compounds with >80% Emax, geometric mean, read-out: STAT6 degradation DC50
# T1 construct: These cells express endogenous STAT6; host or cells: HeLa LgBiT clone 4.14
# T1 sequence (P42226 1-847): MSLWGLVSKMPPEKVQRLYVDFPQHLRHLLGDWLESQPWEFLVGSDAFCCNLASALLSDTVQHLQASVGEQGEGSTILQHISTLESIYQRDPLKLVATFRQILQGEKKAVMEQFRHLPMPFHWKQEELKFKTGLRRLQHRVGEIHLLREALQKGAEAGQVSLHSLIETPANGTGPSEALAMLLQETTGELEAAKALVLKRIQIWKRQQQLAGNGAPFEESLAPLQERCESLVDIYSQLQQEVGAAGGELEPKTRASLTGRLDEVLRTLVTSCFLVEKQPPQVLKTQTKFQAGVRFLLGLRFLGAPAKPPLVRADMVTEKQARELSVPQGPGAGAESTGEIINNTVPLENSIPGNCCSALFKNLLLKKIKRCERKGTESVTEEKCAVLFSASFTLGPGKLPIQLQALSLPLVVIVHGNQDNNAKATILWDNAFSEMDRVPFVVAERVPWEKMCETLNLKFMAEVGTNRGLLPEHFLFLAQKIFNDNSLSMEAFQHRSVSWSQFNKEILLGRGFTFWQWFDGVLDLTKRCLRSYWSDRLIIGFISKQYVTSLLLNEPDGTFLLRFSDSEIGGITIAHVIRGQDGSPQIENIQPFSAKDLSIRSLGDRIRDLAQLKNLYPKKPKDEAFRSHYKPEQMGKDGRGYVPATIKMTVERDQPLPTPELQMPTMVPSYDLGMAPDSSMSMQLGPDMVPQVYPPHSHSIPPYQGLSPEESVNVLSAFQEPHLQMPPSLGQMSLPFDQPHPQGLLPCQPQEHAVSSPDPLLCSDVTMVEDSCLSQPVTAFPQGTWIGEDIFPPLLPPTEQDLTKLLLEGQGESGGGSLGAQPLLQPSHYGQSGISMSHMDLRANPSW
# In short: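 HeLa LgBiT clone 4.14 cells carry CRISPR-inserted HiBiT on endogenous STAT6; 5000 cells/well were exposed to compound for 4-24 h at 37 °C, 5% CO2. Nano-Glo substrate added for 0.5 h; luminescence reflects remaining STAT6, with terfenadine ([…]) wells defining 100% degradation.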
# [2] = test system: Eotaxin-3 (CCL26) release in human whole blood stimulated with IL-4; assay: Human Whole Blood Eotaxin-3 Assay (IL-4 stimulated, inhibition of eotaxin-3 release); type: cell-based; settings: EC50 provided for test compounds with >80% Emax, geometric mean across assay runs and batches
# Description: This was a human whole blood assay using recombinant human Interleukin 4 to stimulate the blood and measuring the ability of the test compounds to inhibit eotaxin-3 release. The biological activities of the test compounds have been tested in human whole blood stimulated with IL-4 measuring Eotaxin-3 release. The test compounds were added to 384 well clear flat-bottom plate in a 4-fold serial dilution in triplicates using a liquid handler. Human whole blood stabilized in lithium-heparin tubes was added in a volume of 65 uL per well, resulting in a final DMSO concentration of 0.5%. The plate is incubated for 2 h at 37° C. under 5% CO2/95% air. Subsequently, 5 μL of recombinant human IL-4 (R&D Systems, cat #204-ILB) was added to the wells to a final concentration of 400 pM. The plate was incubated for 48 h at 37° C. under 5% CO2/95% air. The plate was spun down for 10 minutes at 500×g and 20 uL supernatant was harvested and transferred to a 384 well v-bottom plate using a liquid handler and stored at −20° C. until further analysis. 10 uL supernatant was used to measure the level of Eotaxin-3 (CCL26) using Human Eotaxin-3 MSD kit from Mesocsale (Cat #K251UEK-4). The assay was performed according to the manufacture instructions.
# The data from the human whole blood eotaxin-3 assay is shown below for Examples 2q11, 2110, and 2c49 (where the effect in % is plotted against the test concentration in M on a log-scale).
DC50 [1] [nM],EC50 ([2]; Homo sapiens) [nM],EC50 [2] [nM],SMILES
69.2,249,–,"C[C@@H](c1cc2c(-c3ccc(N)nc3)ccnc2n1C)N1CCC(c2ccc(C(=O)N3CCC(CN4CCN(c5ccc(NC6CCC(=O)NC6=O)cc5F)CC4C(F)(F)F)CC3)cc2)CC1 (mixture of isomers) [Example 2f9, 3-((4-(4-((1-(4-(1-((S)-1-(4-(6-aminopyridin-3-yl)-1-methyl-1H-pyrrolo[2,3-b]pyridin-2-yl)-ethyl)piperidin-4-yl)benzoyl)piperidin-4-yl)methyl)-3-(trifluoromethyl)-piperazin-1-yl)-3-fluorophenyl)-amino)piperidine-2,6-dione]"
10.5,109,–,"C[C@@H](c1cc2c(-c3ccc(N)nc3)ccnc2n1C)N1CCC(c2ccc(C(=O)N3CCC(CN4CCN(c5ccc(N[C@H]6CCC(=O)NC6=O)cc5F)CC4)CC3)cc2)CC1 (single isomer, unassigned) [Example 2c19]"
9.6,–,82.8,"C[C@@H](c1cc2c(-c3ccc(N)nc3)ccnc2n1C)N1CCC(c2ccc(C(=O)N3CCC(CN4CCN(c5ccc(N[C@H]6CCC(=O)NC6=O)cc5F)CC4)CC3)cc2)CC1 (single isomer, unassigned) [Example 2c20]"
3.9,30.7,–,"COCc1nc2cc(-c3ccnc4c3cc([C@H](C)N3CCC(c5ccc(C(=O)N6CCC(CN7CCN(c8ccc(N[C@@H]9CCC(=O)NC9=O)cc8F)CC7)CC6)cc5)CC3)n4C)ccc2[nH]1 (single isomer, unassigned) [Example 2c52]"
4.7,30.9,–,"COCc1nc2cc(-c3ccnc4c3cc([C@H](C)N3CCC(c5ccc(C(=O)N6CCC(CN7CCN(c8ccc(N[C@H]9CCC(=O)NC9=O)cc8F)CC7)CC6)cc5)CC3)n4C)ccc2[nH]1 (single isomer, unassigned) [Example 2c53]"
4.1,19.7,–,"COCc1nc2cc(-c3ccnc4c3cc([C@H](C)N3CCC(c5ccc(C(=O)N6CCC(CN7CCN(c8ccc(N[C@H]9CCC(=O)NC9=O)cc8F)C[C@H]7C)CC6)cc5)CC3)n4C)ccc2[nH]1 (single isomer, unassigned) [Example 2f12]"
2.5,15.6,–,"COCc1nc2cc(-c3ccnc4c3cc([C@H](C)N3CCC(c5ccc(C(=O)N6CCC(CN7CCN(c8ccc(N[C@@H]9CCC(=O)NC9=O)cc8F)C[C@H]7C)CC6)cc5)CC3)n4C)ccc2[nH]1 (single isomer, unassigned) [Example 2f13]"
1,3.2,–,"C[C@@H](c1cc2c(-c3ccc(N)nc3)ccnc2n1C)N1CCC(c2ccc(C(=O)N3CCn4nc(CN5CCC(c6ccc(N[C@@H]7CCC(=O)NC7=O)cc6F)CC5)cc4C3)cc2)CC1 (single isomer, unassigned) [Example 2q10]"
0.8,5.9,–,"C[C@@H](c1cc2c(-c3ccc(N)nc3)ccnc2n1C)N1CCC(c2ccc(C(=O)N3CCn4nc(CN5CCC(c6ccc(N[C@H]7CCC(=O)NC7=O)cc6F)CC5)cc4C3)cc2)CC1 (single isomer, unassigned) [Example 2q11]"
6.6,65,–,"C[C@@H](c1cc2c(-c3ccc(N)nc3)ccnc2n1C)N1CCC(c2ccc(C(=O)N3CCC(CN4CCN(c5ccc(NC6CCC(=O)NC6=O)cc5F)CC4)CC3)cc2)CC1 (stereo partly drawn) [Example 2c14, 3-((4-(4-((1-(4-(1-((S)-1-(4-(6-aminopyridin-3-yl)-1-methyl-1H-pyrrolo[2,3-b]pyridin-2-yl)ethyl)-piperidin-4-yl)benzoyl)piperidin-4-yl)methyl)piperazin-1-yl)-3-fluorophenyl)amino)piperidine-2,6-dione]"
1.2,22.6,–,"COCc1nc2ccc(-c3ccnc4c3cc([C@H](C)N3CCC(c5ccc(C(=O)N6CCC(CN7CCN(c8ccc(NC9CCC(=O)NC9=O)cc8F)CC7)CC6)cc5)CC3)n4C)cc2[nH]1 (stereo partly drawn) [Example 2c16, 3-((3-fluoro-4-(4-((1-(4-(1-((S)-1-(4-(2-(methoxymethyl)-1H-benzo[d]imidazol-6-yl)-1-methyl-1H-pyrrolo[2,3-b]pyridin-2-yl)ethyl)piperidin-4-yl)benzoyl)piperidin-4-yl)methyl)piperazin-1-yl)phenyl)amino)piperidine-2,6-dione]"
4.8,39,–,"CO[C@@H](C)c1nc2cc(-c3ccnc4c3cc([C@H](C)N3CCC(c5ccc(C(=O)N6CCC(CN7CCN(c8ccc(NC9CCC(=O)NC9=O)cc8F)CC7)CC6)cc5)CC3)n4C)ccc2[nH]1 (stereo partly drawn) [Example 2c18, 3-((3-fluoro-4-(4-((1-(4-(1-((S)-1-(4-(2-((S)-1-methoxyethyl)-1H-benzo[d]imidazol-5-yl)-1-methyl-1H-pyrrolo[2,3-b]pyridin-2-yl)ethyl)piperidin-4-yl)benzoyl)piperidin-4-yl)methyl)piperazin-1-yl)phenyl)amino)piperidine-2,6-dione]"
–,265,–,"C[C@H]1CN(c2ccc(NC3CCC(=O)NC3=O)cc2F)CCN1CC1CCN(C(=O)c2ccc(C3CCN([C@@H](C)c4cc5c(-c6ccc(N)nc6)ccnc5n4C)CC3)cc2)CC1 (stereo partly drawn) [Example 2c54, 3-((4-((S)-4-((1-(4-(1-((S)-1-(4-(6-aminopyridin-3-yl)-1-methyl-1H-pyrrolo[2,3-b]pyridin-2-yl)ethyl)piperidin-4-yl)benzoyl)piperidin-4-yl)methyl)-3-methylpiperazin-1-yl)-3-fluorophenyl)amino)piperidine-2,6-dione]"
–,247,–,"C[C@H]1CN(c2ncc(NC3CCC(=O)NC3=O)cc2F)CCN1CC1CCN(C(=O)c2ccc(C3CCN([C@@H](C)c4cc5c(-c6ccc(N)nc6)ccnc5n4C)CC3)cc2)CC1 (stereo partly drawn) [Example 2c55, 3-((6-((S)-4-((1-(4-(1-((S)-1-(4-(6-aminopyridin-3-yl)-1-methyl-1H-pyrrolo[2,3-b]pyridin-2-yl)ethyl)piperidin-4-yl)benzoyl)piperidin-4-yl)methyl)-3-methylpiperazin-1-yl)-5-fluoropyridin-3-yl)amino)piperidine-2,6-dione]"
–,25.1,–,"COCc1nc2cc(-c3ccnc4c3cc(CN3CCC(c5ccc(C(=O)N6CCn7nc(CN8CCC(c9ncc(NC%10CCC(=O)NC%10=O)cc9F)CC8)cc7C6)cc5)CC3)n4C)ccc2[nH]1 (stereo not shown) [Example 2q8, 3-((5-fluoro-6-(1-((5-(4-(1-((4-(2-(methoxymethyl)-1H-benzo[d]imidazol-5-yl)-1-methyl-1H-pyrrolo[2,3-b]pyridin-2-yl)methyl)piperidin-4-yl)benzoyl)-4,5,6,7-tetrahydropyrazolo[1,5-a]pyrazin-2-yl)methyl)piperidin-4-yl)pyridin-3-yl)amino)piperidine-2,6-dione]"
–,37.8,–,"C[C@@H](c1cc2c(-c3ccc(N)nc3)ccnc2n1C)N1CCC(c2ccc(C(=O)N3CCn4nc(CN5CCN(c6ccc(NC7CCC(=O)NC7=O)cc6F)CC5)cc4C3)cc2)CC1 (stereo partly drawn) [Example 2q15, 3-((4-(4-((5-(4-(1-((S)-1-(4-(6-aminopyridin-3-yl)-1-methyl-1H-pyrrolo[2,3-b]pyridin-2-yl)-ethyl)piperidin-4-yl)benzoyl)-4,5,6,7-tetrahydropyrazolo[1,5-a]pyrazin-2-yl)methyl)piperazin-1-yl)-3-fluoro-phenyl)amino)piperidine-2,6-dione]"
